Assay results as given in the NIST ThermoML archive (doi:10.1016/j.tca.2019.03.028).
± gives the expanded uncertainty stated by the source.

Assays:
[1] = relative permittivity at various frequencies (dimensionless); wn = mass fraction of the nth substance listed; conditions: 293.15 K, 100 kPa, Liquid, Frequency=0.01 MHz, Coaxial cylinder capacitor
[2] = relative permittivity at various frequencies (dimensionless); conditions: 293.15 K; 100 kPa; Liquid; Frequency=0.01 MHz; Coaxial cylinder capacitor

Row | SMILES | relative permittivity ([1]; w1 = 1) | relative permittivity ([1]; w2 = 0) | relative permittivity [2] | further results
1 | C1CCCCC1 [cyclohexane] + c1ccccc1 | 2.02 ± 0.12 |  |  | relative permittivity ([1]; w1 = 0.25): 2.2 ± 0.13; relative permittivity ([1]; w1 = 0.5): 2.13 ± 0.13; relative permittivity ([1]; w1 = 0.75): 2.07 ± 0.12
2 | CC#N [acetonitrile] + ClC(Cl)(Cl)Cl | 37.7 ± 1.7 |  |  | 
3 | c1ccccc1 [benzene] + CC#N |  | 2.29 ± 0.13 |  | 
4 | CC#N [acetonitrile] + c1ccccc1 | 37.7 ± 1.7 |  |  | relative permittivity ([1]; w1 = 0.25): 10.21 ± 0.49; relative permittivity ([1]; w1 = 0.5): 19.8 ± 0.93; relative permittivity ([1]; w1 = 0.75): 28.5 ± 1.3
5 | ClC(Cl)(Cl)Cl [tetrachloromethane] |  |  | 2.23 ± 0.13 | 
6 | ClC(Cl)(Cl)Cl [tetrachloromethane] + CC#N |  | 2.23 ± 0.13 |  | relative permittivity ([1]; w2 = 0.25): 14.96 ± 0.71; relative permittivity ([1]; w2 = 0.5): 25.7 ± 1.2; relative permittivity ([1]; w2 = 0.75): 34.2 ± 1.6
7 | CC#N [acetonitrile] |  |  | 37.7 ± 1.7 | 
8 | c1ccccc1 [benzene] + C1CCCCC1 |  | 2.29 ± 0.13 |  | 
9 | c1ccccc1 [benzene] |  |  | 2.29 ± 0.13 | 
10 | C1CCCCC1 [cyclohexane] |  |  | 2.02 ± 0.12 | 
